{"source": "patent US11905522B2", "about": "“Treatment of diseases by liver expression of an enzyme which has a deoxyribonuclease (DNase) activity” (CLS THERAPEUTICS LIMITED, priority 2018, dated 2024)", "molecules": {"B1": {"name": "RhDNase I: recombinant human DNase I in Patutina, 2011 (protein, UniProt P24855 23-282, looked up)", "Deoxyribonuclease-1": "LKIAAFNIQTFGETKMSNATLVSYIVQILSRYDIALVQEVRDSHLTAVGKLLDNLNQDAPDTYHYVVSEPLGRNSYKERYLFVYRPDQVSAVDSYYYDDGCEPCGNDTFNREPAIVRFFSRFTEVREFAIVPLHAAPGDAVAEIDALYDVYLDVQEKWGLEDVMLMGDFNAGCSYVRPSQWSSIRLWTSPTFQWLIPDSADTTATPTHCAYDRIVVAGMLLRGAVVPDSALPFNFQAAYGLSDQLAQAISDHYPVEVMLK"}, "B2": {"name": "DNaseI: DNaseI used to treat GVHD in mice (Li, 2015) (protein, UniProt P24855 23-282, looked up)", "Deoxyribonuclease-1": "LKIAAFNIQTFGETKMSNATLVSYIVQILSRYDIALVQEVRDSHLTAVGKLLDNLNQDAPDTYHYVVSEPLGRNSYKERYLFVYRPDQVSAVDSYYYDDGCEPCGNDTFNREPAIVRFFSRFTEVREFAIVPLHAAPGDAVAEIDALYDVYLDVQEKWGLEDVMLMGDFNAGCSYVRPSQWSSIRLWTSPTFQWLIPDSADTTATPTHCAYDRIVVAGMLLRGAVVPDSALPFNFQAAYGLSDQLAQAISDHYPVEVMLK"}, "B3": {"name": "DNase I protein (wt): recombinant wild-type DNase I protein injected IV in Example 7 (protein, UniProt P24855 23-282, looked up)", "Deoxyribonuclease-1": "LKIAAFNIQTFGETKMSNATLVSYIVQILSRYDIALVQEVRDSHLTAVGKLLDNLNQDAPDTYHYVVSEPLGRNSYKERYLFVYRPDQVSAVDSYYYDDGCEPCGNDTFNREPAIVRFFSRFTEVREFAIVPLHAAPGDAVAEIDALYDVYLDVQEKWGLEDVMLMGDFNAGCSYVRPSQWSSIRLWTSPTFQWLIPDSADTTATPTHCAYDRIVVAGMLLRGAVVPDSALPFNFQAAYGLSDQLAQAISDHYPVEVMLK"}}, "key": {"MIA PaCa-2 xenografts": {"test_system": "MIA PaCa-2 xenografts", "conditions": "vector 1.00 × 10^11 GC/kg IV single dose (Groups 2, 3), Gemcitabine 60 mg/kg IP BIW", "description": "56 female BALB/c nude mice (IBCH RAN) of 6-8 weeks age and 18-22 g weight were used in experiment. The mice were kept in individual ventilation cages at controlled temperature and humidity with four animals in each cage. Each mouse was inoculated subcutaneously at the right flank with MIA PaCa-2 pancreatic tumor cells (1×10^7) in 0.2 ml of PBS supplemented with BD Matrigel (1:1) for tumor development. The treatments were started on day 17 after tumor inoculation when the average tumor size reached approximately 170 mm^3. Each group consisted of eight tumor-bearing mice.\nTumor size was measured twice weekly in two dimensions using a caliper, and the volume was expressed in mm^3 using the formula: V=0.5 a×b^2 where a and b are the long and short diameters of the tumor, respectively. At the time of routine monitoring, the animals were checked daily for any effects of tumor growth and treatments on normal behavior such as mobility, food and water consumption by visual inspection only, loss or gain of body weight (measured twice weekly), eye/hair matting, and any other abnormal effects. On day 35, the study was terminated, the mice were humanely sacrificed by CO2, and blood was sampled from the central and hepatic veins. Liver tissues were also sampled and immersed into formalin for fixing."}, "[1]": {"experiment": "Serum DNase I activity (ORG590), MIA PaCa-2 model", "type": "in vivo, BALB/c nude mice", "conditions": "day 35, regimen per Table 3 (rhDNaseI protein 50 mg/kg, Group 6)", "experimental": "Serum DNase I activity was measured using ORG590 (Orgentec) according to the manufacturer's protocol. Detection was performed using microplate photometer (Multiscan FC) at 450 nm with a correction wavelength of 620 nm. cfDNA in the liver tissue was quantified by immunohistochemistry (IHC) in liver paraffin slides using AC-30-10 mouse IgG DNA binding antibodies (Sigma) as primary antibodies and Novolink Polymer Detection Systems Novocastra (Leica Biosystems)."}, "Circulating cfDNA": {"test_system": "Circulating cfDNA", "conditions": "day 35; regimen per Table 3 (rhDNaseI protein 50 mg/kg, Group 6)", "experimental": "SYBR® Gold Nucleic Acid Gel Stain (Invitrogen) was diluted first at 1:1000 in dimethyl sulphoxide and then at 1:8 in phosphate-buffered saline. 10 μl of plasma samples were applied to 96-well plates. 40 μl of diluted SYBR® Gold was added to each well (final dilution 1:10,000) and fluorescence was measured with a 96 well fluorometer at an emission wavelength of 535 nm and an excitation wavelength of 485 nm."}, "[2]": {"test_system": "cfDNA in the liver tissue", "experiment": "cfDNA in liver tissue by immunohistochemistry, MIA PaCa-2 model", "type": "in vivo, BALB/c nude mice", "conditions": "day 35; vector given with gemcitabine (Group 2); gemcitabine alone (Group 7)", "experimental": "Detection was performed using microplate photometer (Multiscan FC) at 450 nm with a correction wavelength of 620 nm. cfDNA in the liver tissue was quantified by immunohistochemistry (IHC) in liver paraffin slides using AC-30-10 mouse IgG DNA binding antibodies (Sigma) as primary antibodies and Novolink Polymer Detection Systems Novocastra (Leica Biosystems)."}, "[3]": {"test_system": "lung carcinoma and hepatoma metastatic disease", "conditions": "administered daily at 0.02-2.3 mg/kg; cited from earlier work"}, "GVHD": {"test_system": "GVHD", "conditions": "mouse, in vivo; cited from earlier work"}, "[4]": {"experiment": "DNase activity in blood, bacteriophage-induced leaky gut rats", "type": "in vivo, Wistar rats", "conditions": "twice daily IV 50 mg/kg day 7 to day 12", "experimental": "At day 7 of phage treatment, rats were randomized into 4 groups as follows: six rats received intrahepatic injection of 1.0×10^12 LVP in a volume of 200 μl; six rats received injection of 1.0×10^12 LVP in a volume of 200 μl into a thigh muscle; six rats received twice daily intravenous injections of recombinant DNase I protein at 50 mg/kg between day 7 and day 12. The remaining six rats were used as the untreated leaky gut control. An additional six healthy rats were used as a healthy control. At day 12, all rats were sacrificed and blood samples were collected for measurement of the DNase activity in blood.\nSerum DNase I activity was measured using ORG590 (Orgentec) according to the manufacturer's protocol. Detection was performed using microplate photometer (Multiscan FC) at 450 nm with a correction wavelength of 620 nm."}, "NLRP3": {"test_system": "NLRP3", "experiment": "Brain NLRP3 inflammasome expression by RT-PCR, leaky gut rats", "conditions": "twice daily IV 50 mg/kg day 7 to day 12", "experimental": "Leaky gut was induced in 24 rats using a bacteriophage cocktail against Enterobacteriaceae, Staphylococcaceae, and Streptococcaceae families so as to induce microbiota diseases. […] Phages (1.5 mL, 1×10^6 plaque-forming units/mL of each phage cocktail) were added to drinking water according to the manufacturer's instruction and administered orally for 10 days. At day 7 of phage treatment, rats were randomized into 4 groups as follows: six rats received intrahepatic injection of 1.0×10^12 LVP in a volume of 200 μl; six rats received injection of 1.0×10^12 LVP in a volume of 200 μl into a thigh muscle; six rats received twice daily intravenous injections of recombinant DNase I protein at 50 mg/kg between day 7 and day 12. The remaining six rats were used as the untreated leaky gut control. An additional six healthy rats were used as a healthy control. […] Brain autopsies were collected to perform NLRP3 inflammasome expression analysis and 16S universal bacterial RNA gene quantification.\nNLRP3 expression was assessed by collection of 50 mg cortical tissue samples. RNA was isolated using the SV total RNA isolation system (Promega). Superscript III one-step RT-PCR system with platinum Taq DNA Polymerase (Invitrogen) was used for reverse transcriptase-PCR using 5′-[sequence]-3′ (SEQ ID NO: 11) as forward NLRP3 primer and 5′-[sequence]-3′ (SEQ ID NO: 12) as reverse NLRP3 primer. […]"}, "[5]": {"test_system": "16S universal bacterial RNA gene", "experiment": "16S universal bacterial RNA gene quantification in liver and brain, leaky gut rats", "type": "in vivo, Wistar rats", "conditions": "twice daily IV 50 mg/kg day 7 to day 12"}}, "note": "Where two headings read alike, the source gives them in different places.", "data": [{"molecule": "Nc1ccn([C@@H]2O[C@H](CO)[C@@H](O)C2(F)F)c(=O)n1", "note": "[Gemcitabine]", "values": [{"measurement": "mean tumor volume", "setting": "MIA PaCa-2 xenografts; Day 17", "result": "170 ± 13", "unit": "mm^3"}, {"measurement": "mean tumor volume", "setting": "MIA PaCa-2 xenografts; Day 21", "result": "164 ± 14", "unit": "mm^3"}, {"measurement": "mean tumor volume", "setting": "MIA PaCa-2 xenografts; Day 24", "result": "197 ± 17", "unit": "mm^3"}, {"measurement": "mean tumor volume", "setting": "MIA PaCa-2 xenografts; Day 28", "result": "246 ± 10", "unit": "mm^3"}, {"measurement": "mean tumor volume", "setting": "MIA PaCa-2 xenografts; Day 31", "result": "220 ± 8", "unit": "mm^3"}, {"measurement": "mean tumor volume", "setting": "MIA PaCa-2 xenografts; Day 35", "result": "264 ± 14", "unit": "mm^3"}, {"measurement": "Dnase activity in blood", "setting": "[1]; central vein", "result": 1.15, "unit": "mKuU/ml"}, {"measurement": "DNase activity in hepatic vein", "setting": "[1]", "result": 1.05, "unit": "mKuU/ml"}, {"measurement": "Cell free DNA in blood", "setting": "Circulating cfDNA", "result": "241 ± 11", "unit": "ng/mL"}, {"measurement": "cfDNA in the liver (IHC microphotographs, FIG. 4)", "setting": "[2]", "result": "A large amount of cfDNA"}]}, {"molecule": "B1", "values": [{"measurement": "suppressed the development of metastatic disease", "setting": "[3]", "result": "60-90%"}]}, {"molecule": "B2", "values": [{"measurement": "treatment of GVHD in mice", "setting": "GVHD", "result": "successful use"}]}, {"molecule": "B3", "values": [{"measurement": "Dnase activity in blood", "setting": "[4]", "result": 7.15, "unit": "mKuU/ml"}, {"measurement": "Average ΔCt values for brain NLRP3 from RT-PCR", "setting": "NLRP3", "result": 17.341}, {"measurement": "Average ΔCt values for universal bacterial 16S from RT-PCR, brain", "setting": "[5]", "result": 27.417}, {"measurement": "Average ΔCt values for universal bacterial 16S from RT-PCR, liver", "setting": "[5]", "result": 25.752}]}]}
